Among the data in ChEMBL document CHEMBL5126592, “Design, synthesis and activity against drug-resistant bacteria evaluation of C-20, C-23 modified 5-O-mycaminosyltylonolide derivatives” (Eur J Med Chem, 2022) are MIC and Activity values, retold here.

Molecules are shown by their SMILES. Converted amounts (≈) assume the structure as drawn. The source made the active and inactive calls. The calls are words filed in the database; no cut-off is given here.

Common to all, as to format: functional
Test [1] has as its system Staphylococcus aureus. Kind of test: Antibacterial activity against Staphylococcus aureus incubated for 16 to 20 hrs by broth microdilution method. As to conditions: time 16-20 hrs. For orientation: Broth dilution looks for growth in wells or tubes with falling amounts of substance.
Test [2] concerns Staphylococcus aureus. Kind of test: Antibacterial activity against Staphylococcus aureus ATCC 25923 incubated for 16 to 20 hrs by broth microdilution method. The settings on record: time 16-20 hrs.
Test [3] relates to Escherichia coli. Kind of test: Antibacterial activity against Escherichia coli ATCC 25922 incubated for 16 to 20 hrs by broth microdilution method. The settings on record: time 16-20 hrs.
For test [4], the system named is Cronobacter sakazakii. The test can be described thus: Antibacterial activity against Cronobacter sakazakii ATCC 29544 incubated for 16 to 20 hrs by broth microdilution method. The settings on record: time 16-20 hrs.
The subject of test [5] is Klebsiella pneumoniae. The test can be described thus: Antibacterial activity against Klebsiella pneumoniae ATCC 13883 incubated for 16 to 20 hrs by broth microdilution method. The settings on record: time 16-20 hrs.
The subject of test [6] is Enterococcus faecium. Kind of test: Antibacterial activity against Enterococcus faecium incubated for 16 to 20 hrs by broth microdilution method. As to conditions: time 16-20 hrs.
Test [7] relates to Streptococcus dysgalactiae. Kind of test: Antibacterial activity against Streptococcus dysgalactiae incubated for 16 to 20 hrs by broth microdilution method. As to conditions: time 16-20 hrs.
The subject of test [8] is Staphylococcus chromogenes. The test can be described thus: Antibacterial activity against Staphylococcus chromogenes incubated for 16 to 20 hrs by broth microdilution method. The settings on record: time 16-20 hrs.
In test [9] the test system is Escherichia coli. The test can be described thus: Antibacterial activity against Escherichia coli incubated for 16 to 20 hrs by broth microdilution method. The settings on record: time 16-20 hrs.
Test [10] relates to Pseudomonas aeruginosa. Kind of test: Antibacterial activity against Pseudomonas aeruginosa LTP-3 incubated for 16 to 20 hrs by broth microdilution method. As to conditions: time 16-20 hrs.
Test [11] relates to Escherichia coli. The test can be described thus: Induction of drug resistance in Escherichia coli ATCC 25922 assessed as increase in MIC measured after 30 passages by broth microdilution method.
Test [12] deals with Staphylococcus aureus. Kind of test: Antibacterial activity against Staphylococcus aureus ATCC 29213 incubated for 16 to 20 hrs using 10^7 CFU/ml bacterial inoculum by broth microdilution method. As to conditions: time 16-20 hrs.
The test system of test [13] is Staphylococcus aureus. Kind of test: Antibacterial activity against Staphylococcus aureus ATCC 29213 incubated for 16 to 20 hrs using 10^6 CFU/ml bacterial inoculum by broth microdilution method. The settings on record: time 16-20 hrs.
Test [14] concerns Staphylococcus aureus. Kind of test: Antibacterial activity against Staphylococcus aureus ATCC 29213 incubated for 16 to 20 hrs using 10^5 CFU/ml bacterial inoculum by broth microdilution method. As to conditions: time 16-20 hrs.
Test [15] deals with Staphylococcus aureus. The test can be described thus: Antibacterial activity against Staphylococcus aureus ATCC 29213 incubated for 16 to 20 hrs using 10^4 CFU/ml bacterial inoculum by broth microdilution method. The settings on record: time 16-20 hrs.
The test system of test [16] is Staphylococcus aureus. The test can be described thus: Antibacterial activity against Staphylococcus aureus ATCC 29213 incubated for 16 to 20 hrs using 10^3 CFU/ml bacterial inoculum by broth microdilution method. As to conditions: time 16-20 hrs.
The subject of test [17] is Escherichia coli. Kind of test: Antibacterial activity against Escherichia coli ATCC 25922 incubated for 16 to 20 hrs using 10^6 CFU/ml bacterial inoculum by broth microdilution method. As to conditions: time 16-20 hrs.
Test [18] relates to Escherichia coli. The test can be described thus: Antibacterial activity against Escherichia coli ATCC 25922 incubated for 16 to 20 hrs using 10^7 CFU/ml bacterial inoculum by broth microdilution method. The settings on record: time 16-20 hrs.
In test [19] the test system is Escherichia coli. Kind of test: Antibacterial activity against Escherichia coli ATCC 25922 incubated for 16 to 20 hrs using 10^4 CFU/ml bacterial inoculum by broth microdilution method. As to conditions: time 16-20 hrs.
Test [20] concerns Escherichia coli. Kind of test: Antibacterial activity against Escherichia coli ATCC 25922 incubated for 16 to 20 hrs using 10^5 CFU/ml bacterial inoculum by broth microdilution method. As to conditions: time 16-20 hrs.
For test [21], the system named is Escherichia coli. The test can be described thus: Antibacterial activity against Escherichia coli ATCC 25922 incubated for 16 to 20 hrs using 10^3 CFU/ml bacterial inoculum by broth microdilution method. The settings on record: time 16-20 hrs.
The test system of test [22] is Staphylococcus aureus. Kind of test: Antibacterial activity against Staphylococcus aureus ATCC 29213 at pH 8.6 incubated for 16 to 20 hrs in presence of 50% foetal bovine serum by broth microdilution method. The settings on record: time 16-20 hrs.
Test [23] concerns Escherichia coli. The test can be described thus: Antibacterial activity against Escherichia coli ATCC 25922 incubated for 16 to 20 hrs in absence of foetal bovine serum by broth microdilution method. The settings on record: time 16-20 hrs.
Test [24] deals with Escherichia coli. The test can be described thus: Antibacterial activity against Escherichia coli ATCC 25922 incubated for 16 to 20 hrs in presence of 5% foetal bovine serum by broth microdilution method. The settings on record: time 16-20 hrs.
The subject of test [25] is Escherichia coli. Kind of test: Antibacterial activity against Escherichia coli ATCC 25922 incubated for 16 to 20 hrs in presence of 10% foetal bovine serum by broth microdilution method. The settings on record: time 16-20 hrs.
Test [26] relates to Escherichia coli. Kind of test: Antibacterial activity against Escherichia coli ATCC 25922 incubated for 16 to 20 hrs in presence of 25% foetal bovine serum by broth microdilution method. As to conditions: time 16-20 hrs.
Test [27] has as its system Escherichia coli. The test can be described thus: Antibacterial activity against Escherichia coli ATCC 25922 incubated for 16 to 20 hrs in presence of 50% foetal bovine serum by broth microdilution method. As to conditions: time 16-20 hrs.
Test [28] deals with Staphylococcus aureus. The test can be described thus: Antibacterial activity against Staphylococcus aureus ATCC 29213 at pH 8.6 incubated for 16 to 20 hrs in absence of foetal bovine serum by broth microdilution method. The settings on record: time 16-20 hrs.
For test [29], the system named is Staphylococcus aureus. Kind of test: Antibacterial activity against Staphylococcus aureus ATCC 29213 at pH 8.6 incubated for 16 to 20 hrs in presence of 5% foetal bovine serum by broth microdilution method. As to conditions: time 16-20 hrs.
Test [30] relates to Staphylococcus aureus. The test can be described thus: Antibacterial activity against Staphylococcus aureus ATCC 29213 at pH 8.6 incubated for 16 to 20 hrs in presence of 10% foetal bovine serum by broth microdilution method. As to conditions: time 16-20 hrs.
For test [31], the system named is Staphylococcus aureus. Kind of test: Antibacterial activity against Staphylococcus aureus ATCC 29213 at pH 8.6 incubated for 16 to 20 hrs in presence of 25% foetal bovine serum by broth microdilution method. The settings on record: time 16-20 hrs.

Consider `CCCN1C[C@H](C)[C@@H](O)[C@](C)(O)[C@@H](CC)OC(=O)[C@H](C)[C@@H](O[C@H]2C[C@](C)(OC)[C@H](O)[C@@H](C)O2)[C@H](C)[C@@H](O[C@@H]2O[C@H](C)C[C@H](N(C)C)[C@H]2O)[C@](C)(O)C[C@H]1C`, for which the minimum inhibitory concentration (MIC) (as a rule, the least concentration at which growth counts as inhibited) in [1] was 8 µg/mL (≈ 10.3 µM); in [2] it was 4 µg/mL (≈ 5.15 µM); in test [3], 16 µg/mL (≈ 20.6 µM); in test [4], 16 µg/mL (≈ 20.6 µM); in test [5] it was 16 µg/mL (≈ 20.6 µM); in test [6], 32 µg/mL (≈ 41.2 µM). Further, the MIC in test [7] came to 32 µg/mL (≈ 41.2 µM); in test [8], 8 µg/mL (≈ 10.3 µM); in test [9], 16 µg/mL (≈ 20.6 µM); in [10], 32 µg/mL (≈ 41.2 µM).

Regarding `CS(=O)(=O)c1ccc([C@@H](O)[C@@H](CF)NC(=O)C(Cl)Cl)cc1`, the result in [11] was Active.

Regarding `CC[C@H]1OC(=O)C[C@@H](O)[C@H](C)[C@@H](O[C@@H]2O[C@H](C)[C@@H](O[C@H]3C[C@@](C)(O)[C@@H](O)[C@H](C)O3)[C@H](N(C)C)[C@H]2O)[C@@H](CC=O)C[C@@H](C)C(=O)/C=C/C(C)=C/[C@@H]1CO[C@@H]1O[C@H](C)[C@@H](O)[C@@H](OC)[C@H]1OC` [TYLOSIN], the MIC in test [12] is 1 µg/mL (≈ 1.09 µM); in test [13], 1 µg/mL (≈ 1.09 µM); in test [14], 0.5 µg/mL (≈ 0.546 µM); in [15], 0.5 µg/mL (≈ 0.546 µM); in [16], 0.5 µg/mL (≈ 0.546 µM); in test [17], above 32 µg/mL. The minimal inhibitory concentration (MIC) in test [18], in [19], in test [20], in [21], in test [22] and in test [23] was above 32 µg/mL throughout. In addition, the MIC in test [1] is 0.25 µg/mL (≈ 0.273 µM); in [2] it was 0.5 µg/mL (≈ 0.546 µM); in test [3] it was above 32 µg/mL; in test [4], above 32 µg/mL; in [5], above 32 µg/mL; in test [6], 1 µg/mL (≈ 1.09 µM). In addition, the MIC in [7] is 1 µg/mL (≈ 1.09 µM); in [8] it was 0.5 µg/mL (≈ 0.546 µM); in test [9], above 32 µg/mL; in test [10], 32 µg/mL (≈ 34.9 µM); in test [24], above 32 µg/mL; in test [25], above 32 µg/mL. Moreover, the MIC in test [26] is above 32 µg/mL; in test [27] it was above 32 µg/mL; in test [28], 2 µg/mL (≈ 2.18 µM); in test [29] it was above 32 µg/mL; in test [30] it was above 32 µg/mL; in [31] it was above 32 µg/mL.

On to `CC[C@H]1OC(=O)C[C@@H](O)[C@H](C)[C@@H](O[C@@H]2O[C@H](C)[C@@H](O)[C@H](N(C)C)[C@H]2O)[C@@H](CC=O)C[C@@H](C)C(=O)/C=C/C(C)=C/[C@@H]1CO`, for which the minimum inhibitory concentration (MIC) in test [1] was 1 µg/mL (≈ 1.67 µM); in test [2] it was 0.5 µg/mL (≈ 0.836 µM); in test [3], above 32 µg/mL; in test [4] it was above 32 µg/mL; in test [5], above 32 µg/mL; in test [6] it was 1 µg/mL (≈ 1.67 µM). The minimal inhibitory concentration (MIC) was 1 µg/mL (≈ 1.67 µM) in test [7], 1 µg/mL (≈ 1.67 µM) in test [8], above 32 µg/mL in test [9] and 32 µg/mL (≈ 53.5 µM) in [10].

With `CC[C@H]1OC(=O)C[C@@H](O)[C@H](C)[C@@H](O[C@@H]2O[C@H](C)[C@@H](O)[C@H](N(C)C)[C@H]2O)[C@@H](CCN(C)Cc2cn(-c3cnc4ccccc4c3)nn2)C[C@@H](C)C(=O)/C=C/C(C)=C/[C@@H]1CN(C)C`, the minimal inhibitory concentration (MIC) in [1] is 0.25 µg/mL (≈ 0.295 µM); in test [2], 0.25 µg/mL (≈ 0.295 µM); in test [3], 2 µg/mL (≈ 2.36 µM); in test [4], 4 µg/mL (≈ 4.72 µM); in test [5], 2 µg/mL (≈ 2.36 µM); in [6], 1 µg/mL (≈ 1.18 µM). Besides, the minimum inhibitory concentration (MIC) in [7] came out at 2 µg/mL (≈ 2.36 µM); in test [8] it was 0.5 µg/mL (≈ 0.59 µM); in test [9], 2 µg/mL (≈ 2.36 µM); in test [10], 2 µg/mL (≈ 2.36 µM).
